Molecular target: T1, human DGAT2 (Homo sapiens, UniProt Q96PD7)
T1 construct: made in house; host or cells: Sf-9 insect cells (baculovirus), membrane fraction
T1 sequence (Q96PD7 1-388): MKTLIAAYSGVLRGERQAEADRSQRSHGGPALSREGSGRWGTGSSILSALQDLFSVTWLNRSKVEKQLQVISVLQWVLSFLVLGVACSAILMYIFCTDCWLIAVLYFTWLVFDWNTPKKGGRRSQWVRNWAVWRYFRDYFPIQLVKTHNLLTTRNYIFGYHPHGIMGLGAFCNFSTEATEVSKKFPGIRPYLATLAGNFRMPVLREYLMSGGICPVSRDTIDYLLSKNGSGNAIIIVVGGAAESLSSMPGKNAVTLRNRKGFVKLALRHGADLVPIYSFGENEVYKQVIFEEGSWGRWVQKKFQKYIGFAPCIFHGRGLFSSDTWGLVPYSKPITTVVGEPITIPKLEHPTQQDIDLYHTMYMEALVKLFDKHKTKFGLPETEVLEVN
Test: DGAT2 Enzymatic Activity Assay
Assay type: biochemical
Conditions: membrane prep of Sf-9 insect cells expressing hDGAT2; 13C18-triolein product by LC/MS/MS; 25 μM diolein, 5 μM 13C oleoyl-CoA
Experimental: Sf-9 insect cells were maintained in Grace's insect cell culture medium with 10% heated-inactivated fetal bovine serum, 1% Pluronic F-68 and 0.14 μg/ml Kanamycine sulfate at 27° C. in a shaker incubator. After infection with untagged baculovirus expressing human DGAT2 (hDGAT2) at multiplicity of infection (MOI) 3 for 48 hours, cells were harvested. Cell pellets were suspended in buffer containing 10 mM Tris-HCl pH 7.5, 1 mM EDTA, 250 mM sucrose and Complete Protease Inhibitor Cocktail (Sigma Aldrich), and sonicated on ice. Cell debris were removed by centrifugation at 2000×g for 15 minutes. Membrane fractions were isolated by ultracentrifugation (100,000×g), resuspended in the same buffer, and frozen (−80° C.) for later use. The protein concentration was determined with the Pierce™ BCA Protein Assay Kit (Thermo Fisher Scientific).
LC/MS/MS analyses were performed using Thermal Fisher's LX4-TSQ Vantage system. This system consists of an Agilent binary high-performance liquid chromatography (HPLC) pump and a TSQ Vantage triple quadrupole MS/MS instrument. For each sample, 2 μL samples from the top organic layer of in-plate liquid-liquid extraction were injected onto a Thermo Betabasic C4 column (2.1 mm×20 mm, 5 μm particle size). The samples were then eluted using the following conditions; mobile phase: Isopropanol:acetonitrile/10 mM ammonium formate=50/35/15 (v/v/v), flow rate: 0.8 mL/min, temperature: 25° C. Data was acquired in positive mode using a heated electrospray ionization (HESI) interface. […] The peak area was integrated by Xcalibur Quan software. The ratio between the ^13C18triolein generated in the reaction and spiked in internal standard ^13C21-triolein was used to generate percentage inhibition and IC50 values. Compound percentage inhibition was calculated by the following formula: Inhibition %=1−[(compound response−low control)/(high control−low control)]×100%.
DGAT2 activity was determined by measuring the amount of enzymatic product ^13C18-triolein (^13C-1,2,3-Tri(cis-9-octadecenoyl)glycerol) using the membrane prep mentioned above. The assay was carried out in ABgene 384-well assay plates in a final volume of 25 μL at rt.

Compound	IC50 [nM]
CC1(NC(=O)c2cc3cc(Oc4nccnc4OCC(F)(F)F)ccn3n2)CCS(=O)(=O)CC1 [Example 13, N-(4-Methyl-1,1-dioxidotetrahydro-2H-thiopyran-4-yl)-5-((3-(2,2,2-trifluoroethoxy)pyrazin-2-yl)oxy)pyrazolo[1,5-a]pyridine-2-carboxamide]	17
CC1(NC(=O)c2cc3cc(Oc4ncc(Cl)cc4OCC(F)(F)F)ccn3n2)CS(=O)(=O)C1 [Example 15, 5-((5-Chloro-3-(2,2,2-trifluoroethoxy)pyridin-2-yl)oxy)-N-(3-methyl-1,1-dioxidothietan-3-yl)pyrazolo[1,5-a]pyridine-2-carboxamide]	2.5
CC1(NC(=O)c2cc3cc(Oc4ncc(F)cc4OCC(F)(F)F)ccn3n2)CS(=O)(=O)C1 [Example 17, 5-((5-Fluoro-3-(2,2,2-trifluoroethoxy)pyridin-2-yl)oxy)-N-(3-methyl-1,1-dioxidothietan-3-yl)pyrazolo[1,5-a]pyridine-2-carboxamide]	72
C[C@@]1(NC(=O)c2cc3cc(Oc4ncc(F)cc4OCC(F)(F)F)ccn3n2)CCS(=O)(=O)C1 [Example 18, (R)-5-((5-Fluoro-3-(2,2,2-trifluoroethoxy)pyridin-2-yl)oxy)-N-(3-methyl-1,1-dioxidotetrahydrothiophen-3-yl)pyrazolo[1,5-a]pyridine-2-carboxamide]	33
Cc1c(C(=O)NC2(C)CCS(=O)(=O)CC2)nn2ccc(Oc3ncccc3OCC(F)(F)F)cc12 [Example 19, 3-Methyl-N-(4-methyl-1,1-dioxidotetrahydro-2H-thiopyran-4-yl)-5-((3-(2,2,2-trifluoroethoxy)pyridin-2-yl)oxy)pyrazolo[1,5-a]pyridine-2-carboxamide]	7.2
Cc1c(C(=O)NC2(C)CS(=O)(=O)C2)nn2ccc(Oc3ncccc3OCC(F)(F)F)cc12 [Example 20, 3-Methyl-N-(3-methyl-1,1-dioxidothietan-3-yl)-5-((3-(2,2,2-trifluoroethoxy)pyridin-2-yl)oxy)pyrazolo[1,5-a]pyridine-2-carboxamide]	171
CC1(NC(=O)c2nn3ccc(Oc4ncccc4OCC(F)(F)F)cc3c2F)CS(=O)(=O)C1 [Example 22, 3-Fluoro-N-(3-methyl-1,1-dioxidothietan-3-yl)-5-((3-(2,2,2-trifluoroethoxy)pyridin-2-yl)oxy)pyrazolo[1,5-a]pyridine-2-carboxamide]	372
C[C@@]1(NC(=O)c2nn3ccc(Oc4ncccc4OCC(F)(F)F)cc3c2F)CCS(=O)(=O)C1 [Example 23, (R)-3-Fluoro-N-(3-methyl-1,1-dioxidotetrahydrothiophen-3-yl)-5-((3-(2,2,2-trifluoroethoxy)pyridin-2-yl)oxy)pyrazolo[1,5-a]pyridine-2-carboxamide]	817
CC1(NC(=O)c2nn3ccc(Oc4ncccc4OCC(F)(F)F)cc3c2Cl)CS(=O)(=O)C1 [Example 25, 3-Chloro-N-(3-methyl-1,1-dioxidothietan-3-yl)-5-((3-(2,2,2-trifluoroethoxy)pyridin-2-yl)oxy)pyrazolo[1,5-a]pyridine-2-carboxamide]	30
C[C@@]1(NC(=O)c2nn3ccc(Oc4ncccc4OCC(F)(F)F)cc3c2Cl)CCS(=O)(=O)C1 [Example 26, (R)-3-Chloro-N-(3-methyl-1,1-dioxidotetrahydrothiophen-3-yl)-5-((3-(2,2,2-trifluoroethoxy)pyridin-2-yl)oxy)pyrazolo[1,5-a]pyridine-2-carboxamide]	388
C[C@]1(NC(=O)c2nn3ccc(Oc4ncccc4OCC(F)(F)F)cc3c2Cl)CCS(=O)(=O)C1 [Example 27, (S)-3-Chloro-N-(3-methyl-1,1-dioxidotetrahydrothiophen-3-yl)-5-((3-(2,2,2-trifluoroethoxy)pyridin-2-yl)oxy)pyrazolo[1,5-a]pyridine-2-carboxamide]	400

— patent publication US20260193249A1, “PREPARATION OF PYRAZOLOPYRIDINE AND TRIAZOLOPYRIDINE DERIVATIVES AS NOVEL DIACYLGLYCERIDE O-ACYLTRANSFERASE 2 INHIBITORS” (Merck Sharp & Dohme LLC, priority 2022, published 2026)
